# Results: PubChem BioAssay AID1259407 (Chemical Carcinogenesis Research Information System (CCRIS), 2018)
# Activity calls are given as the source filed them. No rule for the calls is given here.
# System: CCRIS mutagenicity, Ames/micronucleus/aberration tests
# Experiment: CCRIS mutagenicity studies
# [1] = Test System: AMES SALMONELLA TYPHIMURIUM, Strain/Indicator: TA100, Metabolic Activation: NONE, Method: PREINCUBATION
# [2] = Test System: AMES SALMONELLA TYPHIMURIUM, Strain/Indicator: TA98, Metabolic Activation: NONE, Method: PREINCUBATION
structure (smiles),measurement,setting,value
CC(=O)Nc1ccc2c(ccc3ccccc32)c1,mutagenic call,"Test System: CHINESE HAMSTER OVARY, Strain/Indicator: AS52/6-THIOGUANINE, Metabolic Activation: NONE",inactive; negative
same,mutagenic call,"Test System: CHINESE HAMSTER OVARY, Strain/Indicator: AS52/6-THIOGUANINE, Metabolic Activation: RAT LIVER S-9, 2-ACETYLAMINOFLUORINE",active; positive
C[C@H](CCC(=O)NCC(=O)O)[C@H]1CC[C@H]2[C@@H]3[C@@H](O)C[C@@H]4C[C@H](O)CC[C@]4(C)[C@H]3CC[C@]12C,mutagenic call,"Test System: Ames Salmonella typhimurium, Strain/Indicator: TA98, Metabolic Activation: Rat, Liver, S-9, Aroclor 1254, Method: Plate incorporation",inactive; negative
Cc1ccc2c(c1)c(C)c1c3ccccc3nc-1n2C,mutagenic call,"Test System: AMES SALMONELLA TYPHIMURIUM, Strain/Indicator: TA97, Metabolic Activation: RAT, LIVER, S-9, AROCLOR 1254, Method: STANDARD PLATE",active; positive
same,mutagenic call,"Test System: AMES SALMONELLA TYPHIMURIUM, Strain/Indicator: TA98, Metabolic Activation: RAT, LIVER, S-9, AROCLOR 1254, Method: STANDARD PLATE",active; positive
same,mutagenic call,"Test System: AMES SALMONELLA TYPHIMURIUM, Strain/Indicator: TA102, Metabolic Activation: RAT, LIVER, S-9, AROCLOR 1254, Method: STANDARD PLATE",active; positive
CC1(c2ccccc2)CO1 (stereo unspecified),mutagenic call,[1],active; positive
Cn1c([N+](=O)[O-])nc2c3cccnc3ccc21,mutagenic call,"Test System: AMES SALMONELLA TYPHIMURIUM, Strain/Indicator: TA98(1,8-DNP6), Metabolic Activation: NONE, Method: PREINCUBATION",inactive; negative
same,mutagenic call,[2],active; positive
same,mutagenic call,"Test System: AMES SALMONELLA TYPHIMURIUM, Strain/Indicator: YG1024, Metabolic Activation: NONE, Method: PREINCUBATION",active; positive
same,mutagenic call,"Test System: E. COLI, Strain/Indicator: CC109, Metabolic Activation: NONE, Method: STANDARD PLATE",active; positive
same,mutagenic call,"Test System: E. COLI, Strain/Indicator: CC109PYG219, Metabolic Activation: NONE, Method: STANDARD PLATE",active; positive
same,mutagenic call,"Test System: E. COLI, Strain/Indicator: DJ3107, Metabolic Activation: NONE, Method: STANDARD PLATE",inactive; negative
same,mutagenic call,"Test System: E. COLI, Strain/Indicator: DJ3108, Metabolic Activation: NONE, Method: STANDARD PLATE",active; positive
same,mutagenic call,"Test System: E. COLI, Strain/Indicator: DJ3109, Metabolic Activation: NONE, Method: STANDARD PLATE",active; positive
same,mutagenic call,"Test System: E. COLI, Strain/Indicator: DJ3110, Metabolic Activation: NONE, Method: STANDARD PLATE",inactive; negative
same,mutagenic call,"Test System: E. COLI, Strain/Indicator: DJ3111, Metabolic Activation: NONE, Method: STANDARD PLATE",inactive; negative
same,mutagenic call,"Test System: E. COLI, Strain/Indicator: DJ3207, Metabolic Activation: NONE, Method: STANDARD PLATE",inactive; negative
same,mutagenic call,"Test System: E. COLI, Strain/Indicator: DJ3208, Metabolic Activation: NONE, Method: STANDARD PLATE",active; positive
same,mutagenic call,"Test System: E. COLI, Strain/Indicator: DJ3209, Metabolic Activation: NONE, Method: STANDARD PLATE",active; positive
same,mutagenic call,"Test System: E. COLI, Strain/Indicator: DJ3211, Metabolic Activation: NONE, Method: STANDARD PLATE",inactive; negative
O=C(ON=C1C=CC(=NOC(=O)c2ccccc2)C=C1)c1ccccc1,mutagenic call,"End Point: IN VITRO CHROMOSOMAL ABERRATIONS, Test System: CHL CELLS, Metabolic Activation: RAT, LIVER, S-9, SODIUM PHENOBARBITAL AND 5,6-BENZOFLAVONE",inactive; negative
same,mutagenic call,[2],active; positive
same,mutagenic call,"Test System: AMES SALMONELLA TYPHIMURIUM, Strain/Indicator: TA98, Metabolic Activation: RAT LIVER S-9, PHENOBARBITAL AND BETA-NAPHTHOFLAVONE, Method: PREINCUBATION",active; positive
same,mutagenic call,[1],inactive; negative
same,mutagenic call,"Test System: AMES SALMONELLA TYPHIMURIUM, Strain/Indicator: TA100, Metabolic Activation: RAT LIVER S-9, PHENOBARBITAL AND BETA-NAPHTHOFLAVONE, Method: PREINCUBATION",active; positive
same,mutagenic call,"Test System: AMES SALMONELLA TYPHIMURIUM, Strain/Indicator: TA1535, Metabolic Activation: NONE, Method: PREINCUBATION",inactive; negative
same,mutagenic call,"Test System: AMES SALMONELLA TYPHIMURIUM, Strain/Indicator: TA1535, Metabolic Activation: RAT LIVER S-9, PHENOBARBITAL AND BETA-NAPHTHOFLAVONE, Method: PREINCUBATION",inactive; negative
same,mutagenic call,"Test System: AMES SALMONELLA TYPHIMURIUM, Strain/Indicator: TA1537, Metabolic Activation: NONE, Method: PREINCUBATION",inactive; negative
same,mutagenic call,"Test System: AMES SALMONELLA TYPHIMURIUM, Strain/Indicator: TA1537, Metabolic Activation: RAT LIVER S-9, PHENOBARBITAL AND BETA-NAPHTHOFLAVONE, Method: PREINCUBATION",active; positive
same,mutagenic call,"Test System: AMES SALMONELLA TYPHIMURIUM, Strain/Indicator: TA1538, Metabolic Activation: NONE, Method: PREINCUBATION",active; positive
same,mutagenic call,"Test System: AMES SALMONELLA TYPHIMURIUM, Strain/Indicator: TA1538, Metabolic Activation: RAT LIVER S-9, PHENOBARBITAL AND BETA-NAPHTHOFLAVONE, Method: PREINCUBATION",active; positive
same,mutagenic call,"Test System: E.COLI, Strain/Indicator: WP2UVRA, Metabolic Activation: NONE, Method: PREINCUBATION",inactive; negative
same,mutagenic call,"Test System: E.COLI, Strain/Indicator: WP2UVRA, Metabolic Activation: RAT LIVER S-9, PHENOBARBITAL AND BETA-NAPHTHOFLAVONE, Method: PREINCUBATION",inactive; negative
CC(=O)c1cccc(N=Nc2ccc(N)c(C(C)=O)c2C)c1C,mutagenic call,[2],inactive; negative
same,mutagenic call,"Test System: AMES SALMONELLA TYPHIMURIUM, Strain/Indicator: TA98, Metabolic Activation: RAT, LIVER, S-9, PHENOBARBITAL AND 5,6-BENZOFLAVONE, Method: PREINCUBATION",inactive; negative
same,mutagenic call,[1],inactive; negative
same,mutagenic call,"Test System: AMES SALMONELLA TYPHIMURIUM, Strain/Indicator: TA100, Metabolic Activation: RAT, LIVER, S-9, PHENOBARBITAL AND 5,6-BENZOFLAVONE, Method: PREINCUBATION",inactive; negative
O=C(O)CCC(=O)O,mutagenic call,"Test System: AMES SALMONELLA TYPHIMURIUM, Strain/Indicator: TA97, Metabolic Activation: NONE, Method: PREINCUBATION",inactive; negative
same,mutagenic call,"Test System: AMES SALMONELLA TYPHIMURIUM, Strain/Indicator: TA97, Metabolic Activation: RAT, LIVER, S-9, AROCLOR 1254, Method: PREINCUBATION",inactive; negative
same,mutagenic call,"Test System: AMES SALMONELLA TYPHIMURIUM, Strain/Indicator: TA102, Metabolic Activation: NONE, Method: PREINCUBATION",inactive; negative
same,mutagenic call,"Test System: AMES SALMONELLA TYPHIMURIUM, Strain/Indicator: TA102, Metabolic Activation: RAT, LIVER, S-9, AROCLOR 1254, Method: PREINCUBATION",inactive; negative
OCc1ccnc2ccccc12,mutagenic call,"Test System: AMES SALMONELLA TYPHIMURIUM, Strain/Indicator: TA100, Metabolic Activation: RAT, LIVER, S-9, Method: PREINCUBATION",inactive; negative
O=C(OCC1CCC2OC2C1)C1CCC2OC2C1 (stereo unspecified),mutagenic call,"Test System: AMES SALMONELLA TYPHIMURIUM, Strain/Indicator: TA97A, Metabolic Activation: NONE, Method: STANDARD PLATE",inactive; negative
same,mutagenic call,"Test System: AMES SALMONELLA TYPHIMURIUM, Strain/Indicator: TA97A, Metabolic Activation: RAT LIVER S-9, PHENOBARBITAL AND BETA-NAPHTHOFLAVONE (10%), Method: STANDARD PLATE",inactive; negative
same,mutagenic call,"Test System: AMES SALMONELLA TYPHIMURIUM, Strain/Indicator: TA98, Metabolic Activation: NONE, Method: STANDARD PLATE",inactive; negative
same,mutagenic call,"Test System: AMES SALMONELLA TYPHIMURIUM, Strain/Indicator: TA98, Metabolic Activation: RAT LIVER S-9, PHENOBARBITAL AND BETA-NAPHTHOFLAVONE (10%), Method: STANDARD PLATE",inactive; negative
same,mutagenic call,"Test System: AMES SALMONELLA TYPHIMURIUM, Strain/Indicator: TA100, Metabolic Activation: NONE, Method: STANDARD PLATE",inactive; negative
same,mutagenic call,"Test System: AMES SALMONELLA TYPHIMURIUM, Strain/Indicator: TA100, Metabolic Activation: RAT LIVER S-9, PHENOBARBITAL AND BETA-NAPHTHOFLAVONE (10%), Method: STANDARD PLATE",active; positive
same,mutagenic call,"Test System: AMES SALMONELLA TYPHIMURIUM, Strain/Indicator: TA102, Metabolic Activation: NONE, Method: STANDARD PLATE",inactive; negative
same,mutagenic call,"Test System: AMES SALMONELLA TYPHIMURIUM, Strain/Indicator: TA102, Metabolic Activation: RAT LIVER S-9, PHENOBARBITAL AND BETA-NAPHTHOFLAVONE (10%), Method: STANDARD PLATE",inactive; negative
